Test results taken from PubChem BioAssay AID248 (DTP/NCI, 2004).
Several values for one entry are separate records, joined by “and”; a condition that tells them apart may be missing. Identical values can stand only once. Inconclusive results and toxic doses are left out.

System: L1210 leukemia ip in BDF1 mice, survival T/C
Experiment: NCI In Vivo Anticancer Drug Screen. Data for tumor model L1210 Leukemia (intraperitoneal) in B6D2F1 (BDF1) mice
Conditions: endpoint: mean survival time, higher = longer survival
Method in brief: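 Transplanted-tumor mice were given test agent; controls received vehicle only. Survival readings from the two groups were divided (treated over control).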

[1] = dose: 100.0 mg/kg/injection, schedule: Q04DX003 (ip), vehicle: saline
[2] = dose: 200.0 mg/kg/injection, schedule: Q04DX003 (ip), vehicle: saline
[3] = dose: 400.0 mg/kg/injection, schedule: Q04DX003 (ip), vehicle: saline
[4] = dose: 100.0 mg/kg/injection, schedule: Q01DX001 (ip), vehicle: saline
[5] = dose: 200.0 mg/kg/injection, schedule: Q01DX001 (ip), vehicle: saline
[6] = dose: 100.0 mg/kg/injection, schedule: Q04DX002 (ip), vehicle: saline with Tween-80
[7] = dose: 100.0 mg/kg/injection, schedule: Q04DX003 (ip), vehicle: Klucel (hydroxypropylcellulose) (HPC)
[8] = dose: 200.0 mg/kg/injection, schedule: Q04DX002 (ip), vehicle: saline with Tween-80
[9] = dose: 200.0 mg/kg/injection, schedule: Q04DX003 (ip), vehicle: Klucel (hydroxypropylcellulose) (HPC)
[10] = dose: 400.0 mg/kg/injection, schedule: Q04DX003 (ip), vehicle: Klucel (hydroxypropylcellulose) (HPC)
[11] = dose: 400.0 mg/kg/injection, schedule: Q01DX001 (ip), vehicle: saline
[12] = dose: 100.0 mg/kg/injection, schedule: Q01DX009 (ip), vehicle: saline with Tween-80
[13] = dose: 200.0 mg/kg/injection, schedule: Q01DX009 (ip), vehicle: saline with Tween-80
[14] = dose: 100.0 mg/kg/injection, schedule: Q01DX009 (ip), vehicle: Klucel (hydroxypropylcellulose) (HPC)
[15] = dose: 400.0 mg/kg/injection, schedule: Q01DX009 (ip), vehicle: saline with Tween-80
[16] = dose: 100.0 mg/kg/injection, schedule: Q04DX003 (ip), vehicle: saline with Tween-80
[17] = dose: 200.0 mg/kg/injection, schedule: Q04DX003 (ip), vehicle: saline with Tween-80

Q: For `CN=C(N)c1ccc(NC(=O)Nc2ccc(NC(=O)Nc3ccc(C(N)=NC)cc3)cc2)cc1`, which T/C (dose: 50.0 mg/kg/injection, schedule: Q01DX Z (oral), vehicle: saline) is on record?
A: 95 % of control

Q: What about the T/C (dose: 60.0 mg/kg/injection, schedule: Q01DX Z (ip), vehicle: saline) of the same molecule?
A: 157 % of control

Q: What about the T/C (dose: 100.0 mg/kg/injection, schedule: Q01DX Z (oral), vehicle: saline) of the same molecule?
A: 89 % of control

Q: What about the T/C (dose: 120.0 mg/kg/injection, schedule: Q01DX Z (ip), vehicle: saline) of the same molecule?
A: 205 % of control

Q: What about the T/C (dose: 200.0 mg/kg/injection, schedule: Q01DX Z (oral), vehicle: saline) of the same molecule?
A: 95 % of control

Q: What about the T/C (dose: 240.0 mg/kg/injection, schedule: Q01DX Z (ip), vehicle: saline) of the same molecule?
A: 108 % of control

Q: What about the T/C (dose: 400.0 mg/kg/injection, schedule: Q01DX Z (oral), vehicle: saline) of the same molecule?
A: 96 % of control

Q: What about the T/C (dose: 480.0 mg/kg/injection, schedule: Q01DX Z (ip), vehicle: saline) of the same molecule?
A: 90 % of control

Q: Which T/C (dose: 62.5 mg/kg/injection, schedule: Q01DX001 (ip), vehicle: Klucel (hydroxypropylcellulose) (HPC)) does the source give for `Clc1nc(Sc2ccc(Br)cc2)c(Cl)c(Sc2ccc(Br)cc2)n1` here?
A: 95 % of control and 89 % of control

Q: What about the T/C (dose: 125.0 mg/kg/injection, schedule: Q01DX001 (ip), vehicle: Klucel (hydroxypropylcellulose) (HPC)) of the same molecule?
A: 94 % of control

Q: What about the T/C (dose: 250.0 mg/kg/injection, schedule: Q01DX001 (ip), vehicle: Klucel (hydroxypropylcellulose) (HPC)) of the same molecule?
A: 94 % of control and 98 % of control

Q: How did the T/C (dose: 100.0 mg/kg/injection, schedule: Q01DX009 (ip), vehicle: saline) turn out when `CCc1c[n+]([O-])c(C)cc1[N+](=O)[O-]` was run?
A: 108 % of control

Q: And the T/C [1]?
A: 101 % of control

Q: What about the T/C (dose: 200.0 mg/kg/injection, schedule: Q01DX009 (ip), vehicle: saline) of the same molecule?
A: 101 % of control

Q: And the T/C [2]?
A: 122 % of control

Q: What about the T/C [3] of the same molecule?
A: 95 % of control

Q: How did the T/C [4] turn out when `O=c1cc[nH]c2c([N+](=O)[O-])cccc12` was run?
A: 99 % of control

Q: And the T/C [5]?
A: 96 % of control

Q: `COC(=O)c1ccccc1N=NNc1ccccc1C(=O)OC` was tested. Which T/C [6] did it give?
A: 92 % of control

Q: What about the T/C [7] of the same molecule?
A: 107 % of control

Q: And the T/C [8]?
A: 89 % of control

Q: And the T/C [9]?
A: 111 % of control

Q: What about the T/C [10] of the same molecule?
A: 98 % of control

Q: What does the source list for `CCOC(=O)C[P+](c1cccc(OC)c1)(c1cccc(OC)c1)c1cccc(OC)c1`?
A: T/C (dose: 15.0 mg/kg/injection, schedule: Q01DX001 (ip), vehicle: carboxymethylcellulose (CMC)): 90 % of control; T/C (dose: 30.0 mg/kg/injection, schedule: Q01DX001 (ip), vehicle: carboxymethylcellulose (CMC)): 91 % of control

Q: What does the source list for `FC(F)(F)c1ccc2c(c1)N(CCCN1CC[N+]3(CCOCC3)CC1)c1ccccc1S2`?
A: T/C (dose: 6.25 mg/kg/injection, schedule: Q01DX009 (ip), vehicle: saline): 97 % of control; T/C (dose: 12.5 mg/kg/injection, schedule: Q01DX009 (ip), vehicle: saline): 95 % of control; T/C (dose: 12.5 mg/kg/injection, schedule: Q04DX003 (ip), vehicle: saline): 114 % of control; T/C (dose: 25.0 mg/kg/injection, schedule: Q04DX003 (ip), vehicle: saline): 91 % of control

Q: How did the T/C (dose: 75.0 mg/kg/injection, schedule: Q01DX001 (ip), vehicle: saline with Tween-80) turn out when `CCCCNc1cc(N)[nH]c(=O)n1` was run?
A: 93 % of control

Q: And the T/C (dose: 150.0 mg/kg/injection, schedule: Q01DX001 (ip), vehicle: saline with Tween-80)?
A: 90 % of control

Q: And the T/C (dose: 300.0 mg/kg/injection, schedule: Q01DX001 (ip), vehicle: saline with Tween-80)?
A: 90 % of control

Q: Which T/C (dose: 100.0 mg/kg/injection, schedule: Q01DX005 (ip), vehicle: saline) does the source give for `Nc1nc2c(nc([Se])n2C2OC(CO)C(O)C2O)c(=O)[nH]1` (stereo unspecified) here?
A: 98 % of control

Q: And the T/C (dose: 200.0 mg/kg/injection, schedule: Q01DX005 (ip), vehicle: saline)?
A: 98 % of control

Q: How did the T/C [4] turn out when `O=c1cccc(CCCCCCc2cccc(=O)[nH]2)[nH]1` was run?
A: 106 % of control

Q: And the T/C [5]?
A: 95 % of control

Q: What about the T/C [11] of the same molecule?
A: 96 % of control

Q: For `N#CCC(=O)N1CCc2ccccc2C1`, which T/C [12] is on record?
A: 97 % of control

Q: And the T/C [6]?
A: 94 % of control

Q: What about the T/C [13] of the same molecule?
A: 97 % of control

Q: What about the T/C [8] of the same molecule?
A: 105 % of control

Q: What about the T/C (dose: 400.0 mg/kg/injection, schedule: Q04DX002 (ip), vehicle: saline with Tween-80) of the same molecule?
A: 101 % of control

Q: `CCCCCCCCCCCCCCCC(=O)OC` was tested. Which T/C [14] did it give?
A: 105 % of control

Q: What about the T/C [7] of the same molecule?
A: 98 % of control

Q: And the T/C (dose: 200.0 mg/kg/injection, schedule: Q01DX009 (ip), vehicle: Klucel (hydroxypropylcellulose) (HPC))?
A: 101 % of control

Q: And the T/C [9]?
A: 93 % of control

Q: What about the T/C (dose: 400.0 mg/kg/injection, schedule: Q01DX009 (ip), vehicle: Klucel (hydroxypropylcellulose) (HPC)) of the same molecule?
A: 97 % of control

Q: And the T/C [10]?
A: 98 % of control

Q: For `O=C(OC(c1ccccc1)(C(F)(F)F)C(F)(F)F)c1ccccc1Sc1ccccc1`, which T/C [12] is on record?
A: 95 % of control

Q: And the T/C [13]?
A: 101 % of control

Q: What about the T/C [15] of the same molecule?
A: 98 % of control

Q: What does the source list for `CCCCCCC(C)OC(=O)c1ccccc1C(=O)OC(C)CCCCCC` (stereo unspecified)?
A: T/C (dose: 100.0 mg/kg/injection, schedule: Q04DX002 (ip), vehicle: saline): 102 % of control; T/C (dose: 200.0 mg/kg/injection, schedule: Q04DX002 (ip), vehicle: saline): 95 % of control; T/C (dose: 400.0 mg/kg/injection, schedule: Q04DX002 (ip), vehicle: saline): 102 % of control

Q: Which T/C [1] does the source give for `O=C(Nc1cccc(C(F)(F)F)c1)C(O)C(O)C(O)C(O)CO` (stereo unspecified) here?
A: 91 % of control

Q: And the T/C [2]?
A: 94 % of control

Q: What about the T/C [3] of the same molecule?
A: 91 % of control

Q: How did the T/C [4] turn out when `CCCCCCCCCCCCCCCC1=C(O)c2ccccc2C(=O)C1=O` was run?
A: 112 % of control

Q: What about the T/C [5] of the same molecule?
A: 101 % of control

Q: What about the T/C [11] of the same molecule?
A: 103 % of control

Q: With `CCn1cc(C(=O)O)c(=O)c2cc(OC)c3ccccc3c21` as the molecule, how does the T/C (dose: 50.0 mg/kg/injection, schedule: Q04DX002 (ip), vehicle: Klucel (hydroxypropylcellulose) (HPC)) read?
A: 92 % of control

Q: And the T/C (dose: 100.0 mg/kg/injection, schedule: Q04DX002 (ip), vehicle: Klucel (hydroxypropylcellulose) (HPC))?
A: 103 % of control

Q: Which T/C [16] does the source give for `CCOP(=O)(OCC)/C(C#N)=C\c1ccc(OC)c(OC)c1` here?
A: 97 % of control

Q: And the T/C [17]?
A: 92 % of control

Q: What about the T/C (dose: 400.0 mg/kg/injection, schedule: Q04DX003 (ip), vehicle: saline with Tween-80) of the same molecule?
A: 92 % of control

Q: For `CC1=C(CO)C(=O)O[C@@H]([C@@H](C)[C@H]2CC[C@H]3[C@@H]4C[C@H]5O[C@]56[C@@H](O)C=CC(=O)[C@]6(C)[C@H]4CC[C@]23C)C1`, which T/C (dose: 10.0 mg/kg/injection, schedule: Q01DX Z (ip), vehicle: carboxymethylcellulose (CMC)) is on record?
A: 98 % of control

Q: What about the T/C (dose: 20.0 mg/kg/injection, schedule: Q01DX Z (ip), vehicle: carboxymethylcellulose (CMC)) of the same molecule?
A: 101 % of control

Q: And the T/C (dose: 50.0 mg/kg/injection, schedule: Q01DX001 (sc), vehicle: steriod suspending solution)?
A: 103 % of control

Q: And the T/C (dose: 100.0 mg/kg/injection, schedule: Q01DX001 (sc), vehicle: steriod suspending solution)?
A: 100 % of control

Q: And the T/C (dose: 200.0 mg/kg/injection, schedule: Q01DX001 (sc), vehicle: steriod suspending solution)?
A: 103 % of control

Q: With `O=S1(=O)CC23C=CC=CC2(CCCC3)C1Cl` (stereo unspecified) as the molecule, how does the T/C (dose: 25.0 mg/kg/injection, schedule: Q01DX009 (ip), vehicle: Klucel (hydroxypropylcellulose) (HPC)) read?
A: 94 % of control

Q: And the T/C (dose: 50.0 mg/kg/injection, schedule: Q01DX009 (ip), vehicle: Klucel (hydroxypropylcellulose) (HPC))?
A: 102 % of control

Q: What about the T/C [14] of the same molecule?
A: 94 % of control

Q: How did the T/C (dose: 50.0 mg/kg/injection, schedule: Q01DX001 (ip), vehicle: carboxymethylcellulose (CMC)) turn out when `N#Cc1c2ccccc2nc2ccccc12` was run?
A: 90 % of control

Q: And the T/C (dose: 100.0 mg/kg/injection, schedule: Q01DX001 (ip), vehicle: carboxymethylcellulose (CMC))?
A: 92 % of control

Q: And the T/C (dose: 200.0 mg/kg/injection, schedule: Q01DX001 (ip), vehicle: carboxymethylcellulose (CMC))?
A: 90 % of control

Q: And the T/C (dose: 400.0 mg/kg/injection, schedule: Q01DX001 (ip), vehicle: carboxymethylcellulose (CMC))?
A: 90 % of control

Q: Which results are given for `COC1(OC)C2CCC1(Cl)C(Cl)=C2Cl` (stereo unspecified)?
A: T/C [12]: 95 % of control; T/C [16]: 93 % of control; T/C [13]: 92 % of control; T/C [17]: 91 % of control; T/C [15]: 89 % of control

Q: Which results are given for `Cc1cc(Cc2cc(C)c(C)c(C)c2C)c(C)c(C)c1C`?
A: T/C (dose: 100.0 mg/kg/injection, schedule: Q01DX001 (ip), vehicle: other): 96 % of control; T/C (dose: 200.0 mg/kg/injection, schedule: Q01DX001 (ip), vehicle: other): 95 % of control; T/C (dose: 400.0 mg/kg/injection, schedule: Q01DX001 (ip), vehicle: other): 90 % of control

Q: Which T/C (dose: 100.0 mg/kg/injection, schedule: Q01DX Z (ip), vehicle: methylcellulose (MC)) does the source give for `Nc1nc(N)c(N)c(N=O)n1` here?
A: 86 % of control
